Like-named read-outs stand apart in the source and are kept apart here.
Experiments:
human HCT116 cells = assay: Inhibition of cell growth, CellTiter Glo assay; settings: for GI50: Homo sapiens
Procedure: The viability and proliferation of human HCT116 cells is measured using the “CellTiter Glo®” assay (Promega), which is a luminescent measure of the number of living cells. Sertraline and AC070 were tested at 10 concentrations and results are expressed as GI50, TGI, LC50 and IC50 relative to control cells (DMSO).
The CellTiter-Glo® assay is a homogeneous method for determining the number of viable cells in culture based on a quantification of the ATP present, an indicator of metabolically active cells. The homogeneous test procedure involves the addition of a single reagent (the CellTiter-Glo® reagent) directly to the cultured cells in serum-enriched medium.
The results of the test are reported in the following Tables 2 and 3 (Table 2: sertraline and Table 3: AC070): […]

[1] = humans; cited from earlier work
TCTP = biological target: T1, TCTP (Homo sapiens, UniProt P13693); settings: prior art section; read-out: affinity for TCTP, Kd; cited from earlier work
T1 sequence (P13693 1-172): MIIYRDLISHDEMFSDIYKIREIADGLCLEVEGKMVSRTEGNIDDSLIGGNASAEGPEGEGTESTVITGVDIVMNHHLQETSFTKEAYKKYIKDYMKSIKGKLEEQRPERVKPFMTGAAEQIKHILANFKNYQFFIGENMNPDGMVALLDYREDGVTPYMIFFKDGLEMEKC

p53 protein = assay: Overexpression of p53 protein, Western blot; type: cell-based; settings: 10 μM
Procedure: The compound AC014 is capable of inducing overexpression of p53 (FIG. 1).
The Western blot was carried out according to the protocol described in the following article: Amson R, Pece S, Lespagnol A, Vyas R, Mazzarol G, Tosoni D, Colaluca I, Viale G, Rodrigues-Ferreira S, Wynendaele J, Chaloin O, Hoebeke J, Marine J C, Di Fiore P P, Telerman A. Nat Med. 2011 Dec. 11; 18(1):91-9.
The following antibodies were used in the Western blot assay: anti-TCTP antibodies were generated against the whole human-derived TCTP. These polyclonal antibodies were purified by affinity column affinity coupled to TCTP (Agro-Bio). Anti-P53 1C12 mouse antibody (Cell Signaling Technology) was used at a dilution of 1/1000.
Secondary antibodies (antirabbit and antimouse) conjugated to HRP were used at a dilution of 1/5000 to visualize the signals by Western blots.

## CN[C@H]1CC[C@@H](c2ccc(Cl)c(Cl)c2)c2ccccc21 [sertraline, reference compound]
Human HCT116 cells; HCT116, CellTiter Glo, determination 1
  TGI50 1: 0.203 µM
Human HCT116 cells; HCT116, CellTiter Glo, determination 2
  TGI50 2: 0.229 µM
Human HCT116 cells; HCT116, CellTiter Glo, determination 3
  TGI50 3: 0.253 µM
Human HCT116 cells; HCT116, CellTiter Glo, mean
  TGI50 Mean: 0.228 µM
Human HCT116 cells; HCT116, CellTiter Glo, median
  TGI50 Median: 0.227 µM
Human HCT116 cells; HCT-116, read-out: GI50 1
  GI50: 125 nM
Human HCT116 cells; HCT-116, read-out: GI50 2
  GI50: 141 nM
Human HCT116 cells; HCT-116, read-out: GI50 3
  GI50: 159 nM
Human HCT116 cells; HCT-116, read-out: GI50 Mean
  GI50: 142 nM
Human HCT116 cells; HCT-116, read-out: GI50 Median
  GI50: 140 nM
Human HCT116 cells; HCT-116, read-out: cell growth inhibition constant GI50
  GI50: 141 nM
[1]
  maximum tolerated dose (MTD): 400 mg/day
TCTP
  Kd: 198000 nM
p53 protein
  expression of the p53 protein: induced
